Test results reported in US6924302B2, “Substituted triazole diamine derivatives as kinase inhibitors” (Ortho McNeil Pharmaceutical, Inc., priority 2000, dated 2005).
Like-named read-outs stand apart in the source and are kept apart here.

Legend:
CDK1:Cyclin-B = target: T1, CDK1:Cyclin-B (Homo sapiens, UniProt P06493); assay: CDK1 Screening Assay; type: biochemical; settings: read-out: CDK1 IC50
T1 construct: purchased New England Biolabs 6020; host or cells: insect cells
How it was run: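 Human CDK1:cyclin-B (30 ng/well) with biotinylated histone-H1 peptide and ^33P-γ-ATP, 1 h at 30° C, 1% DMSO, on streptavidin FlashPlate; incorporation read by scintillation.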

Insulin Receptor Kinase = Insulin Receptor Kinase (Homo sapiens, UniProt P06213); assay: Kinase Selectivity Assay Insulin Receptor Kinase; type: biochemical; settings: Kinase Selectivity, Tables 2a-2k; read-out: Insulin R Kinase IC50
How it was run: (§1)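 Reactions ran one hour at 30° C in 1% DMSO with enzyme diluted in 50 mM Tris-HCl pH 8.0, 0.1% BSA. Scintillation counting read ^33P incorporated into immobilized biotinylated peptide.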

[1] = target: T2, Casein Kinase 2 (alpha and beta subunits) (Homo sapiens, UniProt P68400); assay: Kinase Selectivity Assay Casein Kinase 2; type: biochemical; settings: Kinase Selectivity, Tables 2a-2k; read-out: Caseine Kinase 2 IC50
T2 construct: purchased New England Biolabs 6010; host or cells: E. coli
How it was run: as §1

[2] = target: T3, Glycogen Synthase Kinase-3 (beta isoform) (Oryctolagus cuniculus, UniProt G1T8E2); assay: Kinase Selectivity Assay Glycogen Synthase Kinase-3; type: biochemical, rabbit; settings: Kinase Selectivity, Tables 2a-2k; read-out: GSK-3 IC50
T3 construct: purchased New England Biolabs 6040; host or cells: E. coli
How it was run: as §1

[3] = Kinase Selectivity, Tables 2a-2k

T1 sequence (P06493 whole entry): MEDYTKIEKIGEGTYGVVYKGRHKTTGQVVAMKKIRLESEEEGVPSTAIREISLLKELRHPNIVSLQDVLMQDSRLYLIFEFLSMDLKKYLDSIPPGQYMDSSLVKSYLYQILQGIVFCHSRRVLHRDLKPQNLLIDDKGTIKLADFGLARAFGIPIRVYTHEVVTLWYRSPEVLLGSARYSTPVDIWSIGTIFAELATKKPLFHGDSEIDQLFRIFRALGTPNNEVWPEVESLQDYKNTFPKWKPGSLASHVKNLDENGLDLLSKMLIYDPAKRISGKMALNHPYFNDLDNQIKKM
T1 sequence (P14635 whole entry partner): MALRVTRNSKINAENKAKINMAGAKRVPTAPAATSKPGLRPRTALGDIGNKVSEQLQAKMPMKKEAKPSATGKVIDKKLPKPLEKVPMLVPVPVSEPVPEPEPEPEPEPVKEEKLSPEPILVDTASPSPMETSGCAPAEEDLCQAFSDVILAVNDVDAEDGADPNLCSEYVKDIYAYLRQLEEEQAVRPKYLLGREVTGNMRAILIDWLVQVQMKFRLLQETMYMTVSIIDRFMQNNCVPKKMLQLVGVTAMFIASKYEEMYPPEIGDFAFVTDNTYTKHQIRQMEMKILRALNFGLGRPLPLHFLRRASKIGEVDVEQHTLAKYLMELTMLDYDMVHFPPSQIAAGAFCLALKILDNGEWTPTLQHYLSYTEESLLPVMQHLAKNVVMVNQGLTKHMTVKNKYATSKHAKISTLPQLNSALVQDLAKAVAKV
T2 sequence (P68400 whole entry): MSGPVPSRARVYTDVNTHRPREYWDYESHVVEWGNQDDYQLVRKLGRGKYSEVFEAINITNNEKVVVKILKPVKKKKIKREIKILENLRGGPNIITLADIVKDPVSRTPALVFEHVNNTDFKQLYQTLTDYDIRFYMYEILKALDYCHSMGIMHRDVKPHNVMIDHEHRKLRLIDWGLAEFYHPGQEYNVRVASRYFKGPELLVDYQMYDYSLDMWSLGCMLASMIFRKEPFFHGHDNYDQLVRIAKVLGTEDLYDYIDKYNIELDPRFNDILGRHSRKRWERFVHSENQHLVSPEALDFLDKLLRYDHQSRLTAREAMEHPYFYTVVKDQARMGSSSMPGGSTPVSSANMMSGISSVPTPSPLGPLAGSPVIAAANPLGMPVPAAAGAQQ
T2 sequence (P67870 whole entry partner): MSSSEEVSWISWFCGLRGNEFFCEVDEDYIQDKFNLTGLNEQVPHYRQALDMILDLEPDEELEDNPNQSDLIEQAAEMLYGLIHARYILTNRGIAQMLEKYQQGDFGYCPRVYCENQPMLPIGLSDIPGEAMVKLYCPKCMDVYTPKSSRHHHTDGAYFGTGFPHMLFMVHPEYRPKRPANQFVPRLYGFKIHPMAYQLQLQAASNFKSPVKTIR
Sequence of Insulin Receptor Kinase (P06213 980-1352): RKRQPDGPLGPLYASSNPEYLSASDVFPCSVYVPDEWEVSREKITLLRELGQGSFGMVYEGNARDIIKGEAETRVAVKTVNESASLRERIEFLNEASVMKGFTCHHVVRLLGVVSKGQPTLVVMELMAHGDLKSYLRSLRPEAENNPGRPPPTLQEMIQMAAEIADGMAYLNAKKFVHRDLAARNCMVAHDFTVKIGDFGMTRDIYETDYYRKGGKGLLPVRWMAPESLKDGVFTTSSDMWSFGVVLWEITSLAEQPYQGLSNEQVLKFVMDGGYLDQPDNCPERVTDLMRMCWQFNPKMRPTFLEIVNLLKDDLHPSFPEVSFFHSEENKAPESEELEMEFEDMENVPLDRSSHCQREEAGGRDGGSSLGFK
T3 sequence (G1T8E2 1-432): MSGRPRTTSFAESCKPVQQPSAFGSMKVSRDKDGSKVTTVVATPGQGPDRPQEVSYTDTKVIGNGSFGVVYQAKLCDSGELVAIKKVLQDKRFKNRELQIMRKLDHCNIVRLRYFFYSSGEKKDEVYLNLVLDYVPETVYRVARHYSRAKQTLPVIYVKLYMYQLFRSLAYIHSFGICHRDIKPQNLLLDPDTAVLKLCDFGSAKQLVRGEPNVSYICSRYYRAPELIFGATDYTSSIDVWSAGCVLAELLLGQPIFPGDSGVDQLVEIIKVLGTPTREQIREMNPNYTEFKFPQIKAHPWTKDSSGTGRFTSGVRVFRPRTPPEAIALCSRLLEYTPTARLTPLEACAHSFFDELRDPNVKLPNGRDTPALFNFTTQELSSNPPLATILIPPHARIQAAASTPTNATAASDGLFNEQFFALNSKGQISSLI

| SMILES | IC50 (CDK1:Cyclin-B; [3]) | IC50 (CDK1:Cyclin-B; Table 1) | IC50 (Insulin Receptor Kinase) | IC50 [1] | IC50 [2] |
| --- | --- | --- | --- | --- | --- |
| Nc1nc(Nc2ccc(S(N)(=O)=O)cc2)nn1C(=O)c1c(F)cccc1Cl [Cpd 70, 4-[[5-amino-1-(2-chloro-6-fluorobenzoyl)-1H-1,2,4-triazol-3-yl]amino]-benzenesulfonamide] | 35 nM | 35 nM | > 100 µM | > 100 µM | 220 nM |
| Nc1nc(Nc2ccc(S(N)(=O)=O)cc2)nn1C(=O)c1cccs1 [Cpd 14, 4-[[5-amino-1-(2-thienylcarbonyl)-1H-1,2,4-triazol-3-yl]amino]-benzenesulfonamide] | 4.5 nM | 4.5 nM | 1.2 µM | 8.05 µM | 3 nM |
| Cc1ccccc1C(=O)n1nc(Nc2ccc(S(N)(=O)=O)cc2)nc1N [Cpd 57, 4-[[5-amino-1-(2-methylbenzoyl)-1H-1,2,4-triazol-3-yl]amino]-benzenesulfonamide] | 67 nM | 67 nM | > 100 µM | > 100 µM | 98 nM |
